This is an account of results in patent US6548494B1, “Tricyclic inhibitors of poly(ADP-ribose) polymerases” (Agouron Pharmaceuticals, Inc., priority 1999, dated 2003).

By Ki is commonly meant a dissociation constant, usually derived from enzyme kinetics or from competition with a known ligand. One may read the melting point as the temperature of the solid-liquid transition.

One data set concerns the target purified PARP protein (Homo sapiens, UniProt P09874). Briefly: PARP enzyme inhibition assay. The format is biochemical.
Setting [1] is: 20 nM purified PARP (5 nM for tight-binding inhibitors), 500 μM NAD+, 25° C., several values in one cell = repeat determinations, read-out: Inhibition Constant Ki.

Where “and” joins values, the source holds several entries; their conditions need not be identical. Equal values may be shown once. Where a name gives a salt, the structure may show the parent alone. Read-outs that look alike come from different tables or passages of the source.

Sequence of purified PARP protein (P09874 whole entry): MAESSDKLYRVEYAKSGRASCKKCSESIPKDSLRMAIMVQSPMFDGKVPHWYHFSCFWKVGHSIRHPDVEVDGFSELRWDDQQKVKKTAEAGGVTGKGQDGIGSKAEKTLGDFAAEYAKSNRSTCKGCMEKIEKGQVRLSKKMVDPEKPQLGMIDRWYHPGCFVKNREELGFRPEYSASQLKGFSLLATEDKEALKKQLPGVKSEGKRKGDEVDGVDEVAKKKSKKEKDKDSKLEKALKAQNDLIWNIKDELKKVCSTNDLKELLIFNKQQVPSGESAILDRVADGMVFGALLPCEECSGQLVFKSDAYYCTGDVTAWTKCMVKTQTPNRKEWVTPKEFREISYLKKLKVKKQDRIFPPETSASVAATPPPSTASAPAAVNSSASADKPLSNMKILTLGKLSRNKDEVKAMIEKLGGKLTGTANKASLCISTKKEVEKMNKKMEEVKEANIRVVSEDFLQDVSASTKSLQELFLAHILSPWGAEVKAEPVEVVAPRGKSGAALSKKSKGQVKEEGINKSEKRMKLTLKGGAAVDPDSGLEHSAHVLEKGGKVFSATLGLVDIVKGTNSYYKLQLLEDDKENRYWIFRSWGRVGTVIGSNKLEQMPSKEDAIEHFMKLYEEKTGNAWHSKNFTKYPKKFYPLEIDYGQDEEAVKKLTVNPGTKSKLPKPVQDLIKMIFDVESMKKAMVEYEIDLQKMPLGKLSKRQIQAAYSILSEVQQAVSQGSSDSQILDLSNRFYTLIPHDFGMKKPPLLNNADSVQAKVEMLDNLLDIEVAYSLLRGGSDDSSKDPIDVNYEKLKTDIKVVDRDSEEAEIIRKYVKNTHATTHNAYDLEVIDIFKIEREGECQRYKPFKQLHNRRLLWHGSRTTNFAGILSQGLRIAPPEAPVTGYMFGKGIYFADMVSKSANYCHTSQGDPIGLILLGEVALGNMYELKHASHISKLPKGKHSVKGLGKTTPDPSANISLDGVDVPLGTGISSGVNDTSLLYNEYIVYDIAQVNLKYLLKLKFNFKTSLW

In turn, `COC(OC)c1cccc(-c2nc3cccc4c3n2CCNC4=O)c1` [Example 31a, 1-(3-Dimethoxymethyl-phenyl)-8,9-dihydro-7H-2,7,9a-triaza-benzo[cd]azulen-6-one] displayed a melting point of 182 to 185 °C. The Ki on purified PARP protein (setting [1]) is 22 nM.

Consider `O=C1NCCn2c(-c3cccc(C4OCCO4)c3)nc3cc(F)cc1c32` [Example 68, 1-(3-[1,3]Dioxolan-2-yl-phenyl)-4-fluoro-8,9-dihydro-7H-2,7,9a-triaza-benzo[cd]azulen-6-one], for which the melting point was 262 to 264 °C (dec.). Also, at purified PARP protein (setting [1]), the Ki came out at 5.8 nM. `O=C1NCCn2c(C34CC5CC(CC(C5)C3)C4)nc3cccc1c32` [Example 117, 1-Tricyclo[3.3.1.1]dec-1-yl-8,9-dihydro-7H-2,7,9a-triaza-benzo[cd]azulene-6-one]: the melting point lay in the range of 304 to 306 °C. In addition, the Ki on purified PARP protein (setting [1]) was 9.5 nM.

Turning to `O=C1NCCn2c(-c3cccc(C4OCCO4)c3)nc3cccc1c32` [Example 55, (3-[1,3]Dioxolan-2-yl-phenyl)-8,9-dihydro-7H-2,7,9a-triaza-benzo[cd]azulen-6-one], the melting point was 223 to 225 °C. The Ki on purified PARP protein (setting [1]) turned out to be 10 nM. As for `O=C(c1ccccc1)c1cccc(-c2nc3cccc4c3n2CCNC4=O)c1` [Example 66, 1-(3-Benzoylphenyl)-8,9-dihydro-7H-2,7,9a-triaza-benzo[cd]azulen-6-one], the melting point is 237 to 238 °C (dec.). For the same molecule, the Ki at purified PARP protein (setting [1]) turned out to be 8.9 nM. The matching figures for `O=C1NCCn2c(-c3cccc(CN4CCCC4)c3)nc3cccc1c32` [Example 60, 1-(3-Pyrrolidin-1-ylmethyl-phenyl)-8,9-dihydro-7H-2,7,9a-triaza-benzo[cd]azulen-6-one]: 92 °C (dec.) and 6.2 nM. The matching figures for `O=C1NCCn2c(-c3ccno3)nc3cccc1c32` [Example 13, 1-Isoxazol-5-yl-8,9-dihydro-7H-2,7,9a-triaza-benzo[cd]azulen-6-one]: 226 °C (dec.) and 10.1 nM. `O=C1NCCn2c(-c3ccc(CCO)cc3)nc3cccc1c32` [Example 127, 1-[4-(2-Hydroxy-ethyl)-phenyl]-8,9-dihydro-7H-2,7,9a-triaza-benzo[cd]azulen-6-one] gave a melting point of 263 to 265 °C. On purified PARP protein (setting [1]), the Ki was 3.5 nM and 3.6 nM. In turn, `CN(C)c1cc(-c2nc3cccc4c3n2CCNC4=O)ccn1` [Example 71, 1-(2-Dimethylamino-pyridin-4-yl)-8,9-dihydro-7H-2,7,9a-triaza-benzo[cd]azulen-6-one] gave a melting point of 266 to 268 °C. In addition, the Ki on purified PARP protein (setting [1]) is 13 nM.

In turn, `CNCc1cccc(-c2cc3cccc4c3n2CCNC4=O)c1` [Example 87, 6-(3-Methylaminomethyl-phenyl)-3,4-dihydro-2H-[1,4]diazepino[6,7,1-hi]indol-1-one] returned a melting point of 128 to 130 °C. Besides, the Ki at purified PARP protein (setting [1]) is 6.7 nM and 7 nM.

Consider `CN1CCN(C(=O)c2nc3cccc4c3n2CCNC4=O)CC1` [Example 115, 1-(4-Methyl-piperazine-1-carbonyl)-8,9-dihydro-7H-2,7,9a-triaza-benzo[cd]azulen-6-one], for which the melting point was 311 to 316 °C (dec.). The Ki on purified PARP protein (setting [1]) was 116 nM. Molecule `N/N=C(\N)c1c(-c2ccc(F)cc2)n2c3c(cccc13)C(=O)NCC2` (as salt: hydrochloride) [Example 156, 7-Formyl-6-(4-fluorophenyl)-1-oxo-3,4-dihydro-[1,4]diazepino[6,7,1-hi]indole Amidrazone Hydrochloride] came in with a melting point of 272 to 274 °C. The molecule `NC(=S)c1c(-c2ccc(F)cc2)n2c3c(cccc13)C(=O)NCC2` [Example 153, 6-(4-Fluoro-phenyl)-1-oxo-1,2,3,4-tetrahydro-[1,4]diazepino[6,7,1-hi]indole-7-carbothioic Acid Amide] returned a melting point of 238 to 240 °C. Moreover, the inhibition constant (Ki) at purified PARP protein (setting [1]) stood at 219 nM. The matching figures for `Cc1ccc(-c2nc(-c3nc4cccc5c4n3CCNC5=O)cs2)cc1` [Example 106, 1-(2-p-Tolyl-thiazol-4-yl)-8,9-dihydro-7H-2,7,9a-triaza-benzo[cd]azulen-6-one]: 308 to 313 °C and 8 nM.

In turn, `O=C1NCCn2c(-c3nccs3)nc3cccc1c32` [Example 94, 1-(Thiazol-2-yl)-8,9-dihydro-7H-2,7,9a-triaza-benzo[cd]azulen-6-one] gave a melting point of 271 to 276 °C. Moreover, the inhibition constant Ki at purified PARP protein (setting [1]) was 4.3 nM. Molecule `O=C1NCCn2c(-c3ccc(Oc4ccccc4)cc3)nc3cccc1c32` [Example 78, 1-(4-Phenoxyphenyl)-8,9-dihydro-7H-2,7,9a-triaza-benzo[cd]azulen-6-one] came in with a melting point of 259 to 264 °C. Also, the Ki on purified PARP protein (setting [1]) stood at 5.2 nM. `O=C1NCCn2c(CCc3ccccc3)cc3cccc1c32` [Example 36, 6-Phenethyl-3,4-dihydro-2H-[-1,4]diazepino[6,7,1-hi]indol-1-one]: the melting point was 133 to 135 °C. The same molecule registered a Ki on purified PARP protein (Inhibition Constant Ki (nM)) of 27 nM.

`O=C1NCCn2c(-c3cccc(CO)c3)nc3cccc1c32` [Example 32a, 1-(3-Hydroxymethyl-phenyl)-8,9-dihydro-7H-2,7,9a-triaza-benzo[cd]azulen-6-one] returned a melting point of 275 to 278 °C. Besides, the Ki at purified PARP protein (setting [1]) is 8.8 nM. The matching figures for `O=C1NCCn2c(-c3cccc(Oc4cccnc4)c3)nc3cccc1c32` [Example 16, 1-[3-(Pyridin-3-yloxy)-phenyl]-8,9-dihydro-7H-2,7,9a-triaza-benzo[cd]azulen-6-one]: 223 to 225 °C and 7.2 nM.

Consider `O=C1NCCn2c(-c3ncc[nH]3)nc3cccc1c32` [Example 80, 1-(1H-Imidazol-2-yl)-8,9-dihydro-7H-2.7,9a-triaza-benzo[cd]azulen-6-one], for which the melting point is 227 to 228 °C (dec.). Further, the Ki on purified PARP protein (setting [1]) turned out to be 9 nM. The matching figures for `O=C1NCCn2c(-c3cccc(Cc4ccccc4)c3)nc3cccc1c32` [Example 67, 1-(3-Benzylphenyl)-8,9-dihydro-7H-2,7,9a-triaza-benzo[cd]azulen-6-one]: 205 to 208 °C and 9.3 nM.

`C[S+]([O-])c1nc2cccc3c2n1CCNC3=O` (stereo not shown) [Example 139, 1-Methanesulfinyl-8,9-dihydro-7H-2,7,9a-triaza-benzo[cd]azulen-6-one]: the melting point is 241 to 242 °C (dec.). Moreover, the Ki on purified PARP protein (setting [1]) came out at 12 nM. On to `O=C1NCCn2c(NCc3ccccc3)nc3cccc1c32` [Example 145, 1-Benzylamino-8,9-dihydro-7H-2,7,9a-triaza-benzo[cd]azulen-6-one], for which the melting point is 186 °C (dec.). In addition, at purified PARP protein (setting [1]), the inhibition constant (Ki) turned out to be 20 nM. The matching figures for `N#CCCNCc1ccc(-c2nc3cccc4c3n2CCNC4=O)cc1` [Example 111, 3-[4-(6-Oxo-6,7,8,9-tetrahydro-2,7,9a-triaza-benzo[cd]azulen-1-yl)-benzylamino]-propionitrile]: 208 to 214 °C and 5.1 nM. Molecule `O=Cc1ccc(-c2cc3cc(F)cc4c3n2CCNC4=O)cc1` [Example 169, 4-(9-Fluoro-1-oxo-1,2,3,4-tetrahydro-[1,4]diazepino[6,7,1-hi]indol-6-yl)-benzaldehyde] had a melting point of 212 to 214 °C.

Take `CN1CCn2c(-c3cccc4ccccc34)nc3cccc(c32)C1=O` [Example 27, 7-Methyl-1-naphthalen-1-yl-8,9-dihydro-7H-2,7,9a-triaza-benzo[cd]azulen-6-one]: the melting point is 126 °C (dec.). `CNCc1ccc(-c2cc3cccc4c3n2CCNC4=O)cc1` [Example 83, 6-(4-Methylaminomethyl-phenyl)-3,4-dihydro-2H-[1,4]diazepino[6,7,1-hi]indol-1-one] yielded a melting point of 178 to 180 °C. Still for that read-out and setting: the value for `O=Cc1c(-c2ccc(F)cc2)n2c3c(cccc13)C(=O)NCC2` was 268 to 270 °C; that for `O=C1NCCn2c(-c3cccc(C4OCCCO4)c3)nc3cccc1c32` [Example 30, 1-(3-[1,3]-Dioxan-2-yl-phenyl)-8,9-dihydro-7H-2,7,9a-triaza-benzo[cd]azulen-6-one] was 247 °C (dec.). On to `O=C1NCCn2c(-c3ccc(CN4CCC[C@@H]4C(=O)OCc4ccccc4)cc3)nc3cccc1c32` [Example 217, (R)-1-[4-(6-oxo-6,7,8,9-Tetrahydro-2,7,9a-triaza-benzo[cd]azulen-1-yl)-benzyl]-pyrrolidine-2-carboxylic Acid Benzyl Ester], for which, on purified PARP protein (setting [1]), the Ki came out at 26 nM. On the same count and under the same terms, under `CN(CCc1ccncc1)Cc1ccc(-c2nc3cccc4c3n2CCNC4=O)cc1` [Example 205, 1-(4-{[Methyl-(2-pyridin-4-yl-ethyl)-amino]-methyl}-phenyl)-8,9-dihydro-7H-2,7,9a-triaza-benzo[cd]azulen-6-one] stands 4.7 nM; under `CCCCN(CCO)Cc1ccc(-c2nc3cccc4c3n2CCNC4=O)cc1` [Example 180, 1-(4-{[Butyl-(2-hydroxy-ethyl)-amino]-methyl}-phenyl)-2,7,8,9-tetrahydro-2,7,9a-triaza-benzo[cd]azulen-6-one], 7.4 nM. For the molecule `CC1(C)CC2CC(C)(CN2Cc2ccc(-c3nc4cccc5c4n3CCNC5=O)cc2)C1` (stereo not shown) [Example 215, 1-[4-(1,3,3-Trimethyl-6-aza-bicyclo[3.2.1]oct-6-ylmethyl)-phenyl]-8,9-dihydro-7H-2,7,9a-triaza-benzo[cd]azulen-6-one], the Ki on purified PARP protein (setting [1]) is 11 nM. Turning to `O=C1NCCn2c(-c3ccc(CNCc4cccs4)cc3)nc3cccc1c32` [Example 189, 1-(4-{[(Thiophen-2-ylmethyl)-amino]-methyl}-phenyl)-8,9-dihydro-7H-2,7,9a-triaza-benzo[cd]azulen-6-one], the Ki on purified PARP protein (setting [1]) turned out to be 5.1 nM.

On to `C[C@@H]1Cn2c(-c3ccc(Cl)cc3)nc3cccc(c32)C(=O)N1` [Example 236, (R)-1-(4-Chloro-phenyl)-8-methyl-8,9-dihydro-7H-2,7,9a-triaza-benzo[cd]azulen-6-one], for which the Ki on purified PARP protein (setting [1]) came out at 113 nM.
